These results are taken from patent publication US7622551B2, “Leukocyte stimulating peptides” (POSCO, priority 2004, dated 2009).

The test system of test [1] is differentiated HL60 cells. The test can be described thus: [Ca2+]i increase in fura-2 loaded dHL60 cells. Format: cell-based, human. The note with it: for [Ca^2+]i: differentiated HL60 cells, fura-2, 1 μM of peptide. Here is the method:
(§1) U937 (human histiocytic lymphoma cells), HL60 (human promyelocytic leukemia cells), Raw 264.7 (mouse macrophage), Jurkat (human acute T cell leukemia), PC12 (rat adrenal pheochromocytoma cells), 3Y1 (Rat embryonic fibroblasts), 3T3L1 (preadipocytes), and NCI-H292 (human mucoepidermoid pulmonary carcinoma cells) were obtained from the American Type Culture Collection (Rockville, Md.) and maintained as recommended. FPR- or FPRL1 expressing RBL-2H3 cells were cultured as described previously (He et al. J. Immunol. 2000. 165: 4598-4605). Cells were maintained at about 1×10^6 cells/ml under standard incubator conditions (humidified atmosphere, 95% air, 5% CO2, at 37° C.). HL60 cells were induced to differentiate into the granulocyte phenotype by adding dimethylsulfoxide (DMSO) (final concentration 1.25%, v/v) for 4 days to the culture medium, as described previously (Itoh et al. Blood. 1998. 92: 1432-1441).
(§2) The level of [Ca^2+]i was determined using Grynkiewicz's method using fura-2/AM (Grynkiewicz et al. J. Biol. Chem. 1985. 260: 3440-3550). Briefly, prepared cells were incubated with 3 μM of fura-2/AM at 37° C. for 50 min in serum-free RPMI 1640 medium under continuous stirring. 2×10^6 cells were aliquoted for each assay in Ca^2+ free Locke's solution (154 mM NaCl, 5.6 mM KCl, 1.2 mM MgCl2, 5 mM HEPES, pH 7.3, 10 mM glucose, and 0.2 mM EGTA). Fluorescence changes were measured at the dual excitation wavelength of 340 nm and 380 nm, and the calculated fluorescence ratio was translated into [Ca^2+]i.

Test [2] relates to human monocytes. The test can be described thus: Chemotaxis assay (modified Boyden chamber), monocytes. Format: cell-based. The note with it: FIG. 6B; control peptide at concentrations less than 10 μM. Here is the method:
FIGS. 6A and 6B show chemotactic effect of peptides. Assays were performed using a modified Boyden chamber assay, as described in the Examples. Isolated human neutrophils (A) or monocytes (B) (1×10^6 cells/ml in serum free RPMI) were added to the upper wells of a 96-well chemotaxis chamber and migration across a 3 μm pore size (5 μm for monocytes) polycarbonate membrane was assessed after 2 hrs incubation at 37° C. The numbers of migrated cells were determined by counting them in a high power field (400×). Results are presented as means±S.E. of three independent experiments each performed in duplicate.
Chemotaxis assays were performed using multiwell chambers (Neuroprobe Inc., Gaithersburg, Md.) (Bae et al. Blood. 2001. 97: 2854-2862). Briefly, prepared human monocytes were suspended in RPMI at a concentration of 1×10^6 cells/ml, and 25 μl of the suspension was then placed onto the upper well of a chamber separated by a 5 μm polyhydrocarbon filter (3 μm pores size not polyvinylpyrrolidone coated, as is needed for neutrophils) from peptides or N-formyl-methionyl-leucyl-phenylalanine (fMLF) in the lower well. After incubation for 2 hours (90 minutes for neutrophils) at 37° C., non-migrated cells were removed by scraping, and cells that migrated across the filter were dehydrated, fixed, and stained with hematoxylin (Sigma, St. Louis, Mo.). Stained cells were counted in five randomly chosen high power fields (HPF) (400×) (Bae et al. Blood. 2001. 97: 2854-2862).

The subject of test [3] is ERK. The test can be described thus: ERK phosphorylation in dHL60 cells (anti-phospho-ERK immunoblot). The format is cell-based, human. The note with it: for Phosphorylation level of ERK: dHL60 cells (FIG. 9); for Effect of LY294002 (PI3K) on peptide-induced ERK phosphorylation / Effect of PD98059 (MEK) on peptide-induced ERK phosphorylation / Time of maximal ERK activation after stimulation / Effect of GF109203X (PKC) on peptide-induced ERK phosphorylation: dHL60 cells; for Effect of LY294002 (PI3K) on peptide-induced ERK phosphorylation: LY294002 (50 μM) 15 minutes; for Effect of LY294002 (PI3K) on peptide-induced ERK phosphorylation / Effect of PD98059 (MEK) on peptide-induced ERK phosphorylation / Effect of GF109203X (PKC) on peptide-induced ERK phosphorylation: 1 μM peptide 5 minutes; for Effect of PD98059 (MEK) on peptide-induced ERK phosphorylation: PD98059 (50 μM) 60 minutes; for Time of maximal ERK activation after stimulation: data not shown; for Effect of GF109203X (PKC) on peptide-induced ERK phosphorylation: GF109203X (5 μM) 15 minutes. Here is the method:
Each sample (30 μg of protein) was subjected to 8% SDS-PAGE, and phosphorylated ERK was quantified by immunoblot analysis with anti-phospho-ERK antibody. The results shown are from a single experiment representative of at least three independent experiments.
Extracellular signal regulated protein kinase (ERK) is a well-known intracellular enzyme that mediates diverse cellular responses (Sugden et al. Cell Signal. 1997. 9: 337-351). […] To compare the intracellular signaling involving these 4 peptides, dHL60 cells were pretreated either with LY294002 (50 μM), GF109203X (5 μM), or PD98059 (50 μM) or left untreated as a control. After being incubated for the indicated periods (15 minutes for LY294002 and GF109203X, 60 minutes for PD98059), the cells were stimulated with 1 μM of each peptide for 5 minutes.

In test [4] the test system is differentiated HL60 cells. Description: Arachidonic acid (AA) release in [3H]AA-labeled dHL60 cells. Format: cell-based, human. The note with it: for AA release stimulating activity (in words) / Effect of cPLA2-specific inhibitors AACOCF3 and MAFP on peptide-induced AA release: dHL60 cells; for AA release stimulating activity (in words): 10 μM; for Effect of cPLA2-specific inhibitors AACOCF3 and MAFP on peptide-induced AA release: inhibitor pretreatment 15 min, 1 μM peptide; for Folds of increase (% of total), arachidonic acid release: differentiated HL60 cells, 10 μM of peptide. Here is the method:
as §1
For the initial screening of the PS-SPCLs, we measured the AA release stimulating activity of each peptide pool. Cultured dHL60 cells (10^7 cells/ml) were pre-labeled with 0.5 μCi/ml of (^3H)-AA in RPMI 1640 medium containing 10% FBS for 90 min at 37° C. in a humidified incubator supplied with 95% air and 5% CO2, as described previously (Bae et al. J. Immunol. 2000. 164: 4089-4096). The labeled cells were then washed twice with serum-free RPMI 1640 and incubated in RPMI 1640 medium containing 0.1% fatty acid-free BSA for 15 min at 37° C. After discarding the medium, the cells were stimulated with various concentrations of peptide for the indicated times. Radioactivity in the medium and of collected cells was determined with a liquid scintillation counter. When investigating the effects of inhibitors, cells were preincubated with the indicated concentrations of each inhibitor or vehicle for 15 min prior to stimulation.

The target of test [5] is T1, FPRL1 (Homo sapiens, UniProt P25090).
T1 construct: expressed in transfected cells; host or cells: RBL-2H3
T1 sequence (P25090 1-351): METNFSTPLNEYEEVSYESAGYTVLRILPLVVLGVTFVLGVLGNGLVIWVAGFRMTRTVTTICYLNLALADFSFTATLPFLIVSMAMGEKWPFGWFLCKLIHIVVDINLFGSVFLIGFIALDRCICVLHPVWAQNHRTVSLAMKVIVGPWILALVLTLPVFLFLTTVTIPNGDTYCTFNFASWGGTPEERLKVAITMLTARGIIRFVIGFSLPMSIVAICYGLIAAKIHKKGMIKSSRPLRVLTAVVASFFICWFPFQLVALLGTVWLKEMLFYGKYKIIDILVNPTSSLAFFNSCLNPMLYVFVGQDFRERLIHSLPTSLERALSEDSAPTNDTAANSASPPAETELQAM
The test can be described thus: [Ca2+]i increase in FPRL1-expressing RBL-2H3 cells. The format is cell-based. As to conditions: 10 μM of each peptide (FIG. 7). Here is the method: as §1, §2

Where no end group is shown, it is not given here.

With MKYYKM-NH2 [Peptide P21], in test [1], the “[Ca^2+]i” value is on record as 122 ± 15.7 nM. Moreover, the “Cellular chemotaxis in human monocytes (in words)” value (from here on “Cellular chemotaxis”) in test [2] is given as “induced cellular chemotaxis”. For the same substance, in test [3], the “Phosphorylation level of ERK” value is recorded as “dramatic increase”; the “Effect of LY294002 (PI3K) on peptide-induced ERK phosphorylation” value (“Effect of LY294002 (PI3K)” below) was “PI3K and MEK-dependency”; the “Effect of PD98059 (MEK) on peptide-induced ERK phosphorylation” value is “PI3K and MEK-dependency”; the “Time of maximal ERK activation after stimulation” value (shortened to “Time of maximal ERK activation”) is 5 min. For the same substance, in test [4], the “AA release stimulating activity (in words)” value was “most potent”; the “Effect of cPLA2-specific inhibitors AACOCF3 and MAFP on peptide-induced AA release” value is recorded as “blocked”; the “Folds of increase (% of total), arachidonic acid release” value (“Folds of increase (% of total)” below) was 2.86 ± 0.426 folds. Also, the “[Ca^2+]i increase in FPRL1-expressing RBL-2H3 cells” value in test [5] was “induced calcium increase”.
Consider MKYYYM-NH2 [Peptide P24], for which the “Concentration of maximal activity, [Ca^2+]i increase” value in test [1] (dHL60 cells, data not shown) is listed as “approximately 3 μM”. Further, the “[Ca^2+]i” value in test [1] is 165 ± 23.4 nM. Moreover, the “Cellular chemotaxis” value in test [2] was “induced cellular chemotaxis”. In addition, in test [3], the “Phosphorylation level of ERK” value is on record as “dramatic increase”, the “Effect of GF109203X (PKC) on peptide-induced ERK phosphorylation” value is recorded as “not by GF109203X”, the “Effect of LY294002 (PI3K)” value is recorded as “partially blocked” and the “Time of maximal ERK activation” value came to 5 min. Moreover, in test [4], the “AA release stimulating activity (in words)” value is reported as “most potent”; the “Effect of cPLA2-specific inhibitors AACOCF3 and MAFP on peptide-induced AA release” value is reported as “blocked”; the “Folds of increase (% of total)” value is on record as 2.93 ± 0.323 folds. Moreover, the “[Ca^2+]i increase in FPRL1-expressing RBL-2H3 cells” value in test [5] was “induced calcium increase”.
For the substance RKYHVM-NH2 [Peptide P14], in test [1], the “[Ca^2+]i” value is reported as 85 ± 9.5 nM. For the same substance, the “Cellular chemotaxis” value in test [2] is listed as “induced cellular chemotaxis”. For the same substance, in test [3], the “Phosphorylation level of ERK” value was “dramatic increase”, the “Effect of GF109203X (PKC) on peptide-induced ERK phosphorylation” value was “blocked”, the “Effect of LY294002 (PI3K)” value is listed as “blocked” and the “Effect of PD98059 (MEK) on peptide-induced ERK phosphorylation” value is on record as “blocked”. In test [3], the “Time of maximal ERK activation” value stood at 5 min. Moreover, in test [4], the “AA release stimulating activity (in words)” value is listed as “most potent”; the “Effect of cPLA2-specific inhibitors AACOCF3 and MAFP on peptide-induced AA release” value is reported as “blocked”; the “Folds of increase (% of total)” value is given as 2.23 ± 0.403 folds. In test [5], the “[Ca^2+]i increase in FPRL1-expressing RBL-2H3 cells” value is “induced calcium increase”.
